pIC50: −log10 of the molar value.
Molecular target: PIK3CD (Human) (UniProt O00329)
Experiment: Assessment of PIK3CD Kinase Activity

Sequence of PIK3CD (Human) (O00329 whole entry, looked up): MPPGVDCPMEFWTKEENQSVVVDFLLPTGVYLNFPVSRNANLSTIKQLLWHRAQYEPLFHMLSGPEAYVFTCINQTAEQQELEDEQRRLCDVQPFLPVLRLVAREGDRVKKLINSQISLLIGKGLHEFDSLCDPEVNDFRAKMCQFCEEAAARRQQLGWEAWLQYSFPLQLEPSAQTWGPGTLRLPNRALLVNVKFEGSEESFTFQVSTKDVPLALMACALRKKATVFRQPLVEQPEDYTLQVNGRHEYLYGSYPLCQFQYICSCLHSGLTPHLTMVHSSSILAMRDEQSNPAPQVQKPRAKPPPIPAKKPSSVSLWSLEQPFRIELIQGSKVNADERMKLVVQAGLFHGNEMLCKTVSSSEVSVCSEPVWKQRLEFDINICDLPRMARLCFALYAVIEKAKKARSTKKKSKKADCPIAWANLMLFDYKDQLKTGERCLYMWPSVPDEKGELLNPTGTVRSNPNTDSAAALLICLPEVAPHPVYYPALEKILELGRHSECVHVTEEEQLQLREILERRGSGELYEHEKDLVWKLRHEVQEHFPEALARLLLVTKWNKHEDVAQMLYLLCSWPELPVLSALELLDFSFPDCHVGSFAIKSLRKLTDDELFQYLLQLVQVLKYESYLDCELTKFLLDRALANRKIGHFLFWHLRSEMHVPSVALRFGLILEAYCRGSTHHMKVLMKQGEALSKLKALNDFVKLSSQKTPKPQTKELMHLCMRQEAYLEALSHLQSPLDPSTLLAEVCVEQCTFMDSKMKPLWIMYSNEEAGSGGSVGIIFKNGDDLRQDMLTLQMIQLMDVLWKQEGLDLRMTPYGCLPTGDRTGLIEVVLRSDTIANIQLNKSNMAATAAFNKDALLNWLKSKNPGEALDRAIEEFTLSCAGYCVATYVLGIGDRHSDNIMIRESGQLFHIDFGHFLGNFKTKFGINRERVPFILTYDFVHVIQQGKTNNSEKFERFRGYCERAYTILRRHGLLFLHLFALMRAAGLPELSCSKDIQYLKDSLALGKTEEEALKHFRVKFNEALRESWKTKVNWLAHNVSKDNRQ

pIC50 | SMILES
> 6.30 | Fc1cc(-c2nc(N3CCOCC3)c3cc(CN4CCC(N5CCOCC5)CC4)ccc3n2)c2cc[nH]c2c1
> 6.30 | c1cc(-c2nc(N3CCOCC3)c3cc(CN4CC5CCC(C4)N5)ccc3n2)c2cc[nH]c2c1
> 6.30 | c1cc(-c2nc(N3CCOCC3)c3cc(CN4CC5(CCNCC5)C4)ccc3n2)c2cc[nH]c2c1
> 6.30 | c1cc(-c2nc(N3CCOCC3)c3cc(CN4CCC(N5CCOCC5)CC4)ccc3n2)c2cc[nH]c2c1
> 6.30 | C[C@@H]1CN(Cc2ccc3nc(-c4cccc5[nH]ccc45)nc(N4CCOCC4)c3c2)C[C@H](C)N1
> 6.30 | CN1CCC(N(C)Cc2ccc3nc(-c4cccc5[nH]ccc45)nc(N4CCOCC4)c3c2)CC1
> 6.30 | c1cc(-c2nc(N3CCOCC3)c3cc(CN4CC5CNCC5C4)ccc3n2)c2cc[nH]c2c1 (configuration not stated)
> 6.30 | CN1CCC(N(C)Cc2ccc3nc(-c4cc(F)cc5[nH]ccc45)nc(N4CCOCC4)c3c2)CC1
> 6.30 | Fc1ccc2[nH]ccc2c1-c1nc(N2CCOCC2)c2cc(CN3C[C@@H]4C[C@H]3CN4)ccc2n1
> 6.30 | OCCN1CCN(Cc2ccc3nc(-c4cccc5[nH]ccc45)nc(N4CCOCC4)c3c2)CC1
> 6.30 | c1cc(-c2nc(N3CCOCC3)c3cc(CN4CCN5CCC[C@H]5C4)ccc3n2)c2cc[nH]c2c1
> 6.30 | CN1CCN(Cc2ccc3nc(-c4cccc5[nH]ccc45)nc(N4CCOCC4)c3c2)CC1

— the Kinase Knowledgebase extract (Sharma et al. 2016)
